According to patent US12059478B2, “Gene therapy” (Ospedale San Raffaele S.r.l., priority 2016, dated 2024):

Tests used:
[1] = tested on: p53 signalling (p21 mRNA) in human CD34+ HSPC; assay: p21 mRNA induction (p53 signalling) after vector transduction, Taqman; assay type: cell-based; conditions: for LV-induced p21 mRNA in presence of the inhibitor: CB-CD34+, LV MOI 100, inhibitor 10 μM, 48 h
Source text: Human CD34+ hematopoietic stem and progenitor cells (HSPC) and CD4+ T cells were isolated through magnetic bead selection according to the manufacturer's instructions (Milteny) from umbilical cord blood (CB) collected upon informed consent from healthy volunteers according to the Institutional Ethical Committee approved protocol (TIGET01). Otherwise, CB and bone marrow (BM)-derived CD34+ were directly purchased from Lonza. Cells were purified and cultured as described in Petrillo et al. (Petrillo, C. et al. (2015) Molecular Therapy 23: 352-362). K562 and Hela cell lines were plated in complete Iscove's modified Dulbecco's medium (Euroclone). HL-60 cells were grown and transduced in complete RPMI. HCT-116 cells were grown and transduced in complete Dulbecco's Modified Eagle Medium (DMEM). Murine Lin− cells were isolated through magnetic bead selection according to the manufacturer's instructions (Miltenyi) from bone marrow of euthanised C57/BL6 mice. For the clinical standard double-hit transduction protocol, cells were washed 16 h after the first vector exposure, left to recover in cytokine-supplemented medium for 10 h and re-exposed to the second hit of vector for another 16 h before transplantation. All animal procedures were performed according to protocols approved by the Animal Care and Use Committee of the Ospedale San Raffaele (IACUC 611) and according to Italian law. All cells were transduced at the indicated multiplicity of infection (MOI) as calculated by titration of vector stocks on 293T cells for Lentiviral and Retroviral vectors. Transductions with the AAV6 vectors were performed at an MOI of 10000 as calculated by titration of the vector preparation expressed in vector genome per mL (vg/mL). All the transductions were performed at 1×10^6 cells/mL concentration. In the experiment with anti-retroviral inhibitors, the drugs were added together with the vector. Raltegravir and 3TC were used at 10 μM, and AZT at 25 μM. In the ATM inhibition experiment, single hit of the ATM inhibitor KU55933 (Selleck Chemicals) was added to the cells 2 hours before the transduction at 10 μM concentration. All cells were maintained in a 5% CO2 humidified atmosphere at 37° C.
Total RNA was extracted with the RNeasy Plus Micro kit or RNeasy Micro Kit (Qiagen) and Reverse transcription was performed using SuperScriptVILO cDNA Synthesis Kit (ThermoFisher Scientific) according to the manufacturers' instructions. Gene expression analysis was performed by Taqman probe (Thermo Fisher, Table 6) as described in Petrillo et al. (Petrillo, C. et al. (2015) Molecular Therapy 23: 352-362), human HPRT1 or murine Hprt were used to normalise the total quantity of human or mouse cDNA input respectively.

human CB-CD34+ cells [2] = assay: Transduction efficiency (GFP expression, integrated vector copy number); assay type: cell-based; conditions: LV MOI 100, 10 μM, 14 days
Source text: (§1) Human CD34+ hematopoietic stem and progenitor cells (HSPC) and CD4+ T cells were isolated through magnetic bead selection according to the manufacturer's instructions (Milteny) from umbilical cord blood (CB) collected upon informed consent from healthy volunteers according to the Institutional Ethical Committee approved protocol (TIGET01). Otherwise, CB and bone marrow (BM)-derived CD34+ were directly purchased from Lonza. Cells were purified and cultured as described in Petrillo et al. (Petrillo, C. et al. (2015) Molecular Therapy 23: 352-362). K562 and Hela cell lines were plated in complete Iscove's modified Dulbecco's medium (Euroclone). […] All cells were transduced at the indicated multiplicity of infection (MOI) as calculated by titration of vector stocks on 293T cells for Lentiviral and Retroviral vectors. Transductions with the AAV6 vectors were performed at an MOI of 10000 as calculated by titration of the vector preparation expressed in vector genome per mL (vg/mL). […]
Human HSPC fluorescence associated cell sorting was performed as described in Petrillo et al. (Petrillo, C. et al. (2015) Molecular Therapy 23: 352-362). All cytometric analyses were performed using the FACS […] instrument and LSRFortessa instruments (BD Biosciences, San Jose, CA) and analysed with the FACS Express software (De Novo Software, Glendale, CA). […]

[3] = tested on: Interferon stimulated genes (IRF7, OAS1, ISG15) in human CB-CD34+; assay: Interferon stimulated gene mRNA induction; assay type: cell-based; conditions: RV MOI 100, 48 h, Raltegravir and KU55933 10 μM, AZT 25 μM
Source text: as §1, with “(Euroclone). HL-60 cells were grown and transduced in complete RPMI. HCT-116 cells were grown and transduced in complete Dulbecco's Modified Eagle Medium (DMEM). Murine Lin− cells were isolated through magnetic bead selection according to the manufacturer's instructions (Miltenyi) from bone marrow of euthanised C57/BL6 mice.” for “(Euroclone).”

ATR [4] = molecular target: T1, ATR (Mus musculus, UniProt Q9JKK8); conditions: 3T3TopBP1-ER cells; cited from earlier work
T1 construct: endogenous in cells; host or cells: 3T3TopBP1-ER cells

human CD34+ HSPC = assay: Annexin V apoptosis assay after transduction; assay type: cell-based
Source text: as §1, with “(Euroclone). HL-60 cells were grown and transduced in complete RPMI. HCT-116 cells were grown and transduced in complete Dulbecco's Modified Eagle Medium (DMEM). Murine Lin− cells were isolated through magnetic bead selection according to the manufacturer's instructions (Miltenyi) from bone marrow of euthanised C57/BL6 mice. For the clinical standard double-hit transduction protocol, cells were washed 16 h after the first vector exposure, left to recover in cytokine-supplemented medium for 10 h and re-exposed to the second hit of vector for another 16 h before transplantation.” for “(Euroclone).”
Human HSPC fluorescence associated cell sorting was performed as described in Petrillo et al. (Petrillo, C. et al. (2015) Molecular Therapy 23: 352-362). All cytometric analyses were performed using the FACS […] instrument and LSRFortessa instruments (BD Biosciences, San Jose, CA) and analysed with the FACS Express software (De Novo Software, Glendale, CA). GFP expression in transduced cells was measured 5-7 days post-transduction. […]

human CB-CD34+ cells [5] = assay: Cell proliferation dye assay; assay type: cell-based; conditions: LV MOI 100, 2 days
[6] = tested on: human CD45+ cells in the peripheral blood; assay: Transplantation of transduced human HSPC in NSG mice (engraftment); conditions: transient inhibition during ex vivo transduction
mPB CD34+ cells = assay: Two-hit transduction protocol in mPB CD34+ cells with clinical-grade LV (apoptosis, CFC, cell counts, p21); assay type: cell-based, human; conditions: two hits MOI 100 clinical-grade LV, 10 μM
Source text: as §1
CFC assay cells were performed as described in Petrillo et al and Gentner et al. (Petrillo, C. et al. (2015) Molecular Therapy 23: 352-362; Gentner, B. et al. (2010) Science Translational Medicine 2: 58ra84). After ten days, colonies were identified as erythroid or myeloid by morphological criteria, counted, plucked and pooled into sets of three to obtain DNA for quantification of vector content. […]

[7] = DMSO, ethanol; cited from earlier work
ATM kinase = ATM kinase (Homo sapiens, UniProt Q13315); conditions: cited from earlier work
ATR [8] = molecular target: ATR (Homo sapiens, UniProt Q13535, F134E); conditions: cited from earlier work
ATR (Homo sapiens, UniProt Q13535, F134E), sequence (Q13535 whole entry F134E): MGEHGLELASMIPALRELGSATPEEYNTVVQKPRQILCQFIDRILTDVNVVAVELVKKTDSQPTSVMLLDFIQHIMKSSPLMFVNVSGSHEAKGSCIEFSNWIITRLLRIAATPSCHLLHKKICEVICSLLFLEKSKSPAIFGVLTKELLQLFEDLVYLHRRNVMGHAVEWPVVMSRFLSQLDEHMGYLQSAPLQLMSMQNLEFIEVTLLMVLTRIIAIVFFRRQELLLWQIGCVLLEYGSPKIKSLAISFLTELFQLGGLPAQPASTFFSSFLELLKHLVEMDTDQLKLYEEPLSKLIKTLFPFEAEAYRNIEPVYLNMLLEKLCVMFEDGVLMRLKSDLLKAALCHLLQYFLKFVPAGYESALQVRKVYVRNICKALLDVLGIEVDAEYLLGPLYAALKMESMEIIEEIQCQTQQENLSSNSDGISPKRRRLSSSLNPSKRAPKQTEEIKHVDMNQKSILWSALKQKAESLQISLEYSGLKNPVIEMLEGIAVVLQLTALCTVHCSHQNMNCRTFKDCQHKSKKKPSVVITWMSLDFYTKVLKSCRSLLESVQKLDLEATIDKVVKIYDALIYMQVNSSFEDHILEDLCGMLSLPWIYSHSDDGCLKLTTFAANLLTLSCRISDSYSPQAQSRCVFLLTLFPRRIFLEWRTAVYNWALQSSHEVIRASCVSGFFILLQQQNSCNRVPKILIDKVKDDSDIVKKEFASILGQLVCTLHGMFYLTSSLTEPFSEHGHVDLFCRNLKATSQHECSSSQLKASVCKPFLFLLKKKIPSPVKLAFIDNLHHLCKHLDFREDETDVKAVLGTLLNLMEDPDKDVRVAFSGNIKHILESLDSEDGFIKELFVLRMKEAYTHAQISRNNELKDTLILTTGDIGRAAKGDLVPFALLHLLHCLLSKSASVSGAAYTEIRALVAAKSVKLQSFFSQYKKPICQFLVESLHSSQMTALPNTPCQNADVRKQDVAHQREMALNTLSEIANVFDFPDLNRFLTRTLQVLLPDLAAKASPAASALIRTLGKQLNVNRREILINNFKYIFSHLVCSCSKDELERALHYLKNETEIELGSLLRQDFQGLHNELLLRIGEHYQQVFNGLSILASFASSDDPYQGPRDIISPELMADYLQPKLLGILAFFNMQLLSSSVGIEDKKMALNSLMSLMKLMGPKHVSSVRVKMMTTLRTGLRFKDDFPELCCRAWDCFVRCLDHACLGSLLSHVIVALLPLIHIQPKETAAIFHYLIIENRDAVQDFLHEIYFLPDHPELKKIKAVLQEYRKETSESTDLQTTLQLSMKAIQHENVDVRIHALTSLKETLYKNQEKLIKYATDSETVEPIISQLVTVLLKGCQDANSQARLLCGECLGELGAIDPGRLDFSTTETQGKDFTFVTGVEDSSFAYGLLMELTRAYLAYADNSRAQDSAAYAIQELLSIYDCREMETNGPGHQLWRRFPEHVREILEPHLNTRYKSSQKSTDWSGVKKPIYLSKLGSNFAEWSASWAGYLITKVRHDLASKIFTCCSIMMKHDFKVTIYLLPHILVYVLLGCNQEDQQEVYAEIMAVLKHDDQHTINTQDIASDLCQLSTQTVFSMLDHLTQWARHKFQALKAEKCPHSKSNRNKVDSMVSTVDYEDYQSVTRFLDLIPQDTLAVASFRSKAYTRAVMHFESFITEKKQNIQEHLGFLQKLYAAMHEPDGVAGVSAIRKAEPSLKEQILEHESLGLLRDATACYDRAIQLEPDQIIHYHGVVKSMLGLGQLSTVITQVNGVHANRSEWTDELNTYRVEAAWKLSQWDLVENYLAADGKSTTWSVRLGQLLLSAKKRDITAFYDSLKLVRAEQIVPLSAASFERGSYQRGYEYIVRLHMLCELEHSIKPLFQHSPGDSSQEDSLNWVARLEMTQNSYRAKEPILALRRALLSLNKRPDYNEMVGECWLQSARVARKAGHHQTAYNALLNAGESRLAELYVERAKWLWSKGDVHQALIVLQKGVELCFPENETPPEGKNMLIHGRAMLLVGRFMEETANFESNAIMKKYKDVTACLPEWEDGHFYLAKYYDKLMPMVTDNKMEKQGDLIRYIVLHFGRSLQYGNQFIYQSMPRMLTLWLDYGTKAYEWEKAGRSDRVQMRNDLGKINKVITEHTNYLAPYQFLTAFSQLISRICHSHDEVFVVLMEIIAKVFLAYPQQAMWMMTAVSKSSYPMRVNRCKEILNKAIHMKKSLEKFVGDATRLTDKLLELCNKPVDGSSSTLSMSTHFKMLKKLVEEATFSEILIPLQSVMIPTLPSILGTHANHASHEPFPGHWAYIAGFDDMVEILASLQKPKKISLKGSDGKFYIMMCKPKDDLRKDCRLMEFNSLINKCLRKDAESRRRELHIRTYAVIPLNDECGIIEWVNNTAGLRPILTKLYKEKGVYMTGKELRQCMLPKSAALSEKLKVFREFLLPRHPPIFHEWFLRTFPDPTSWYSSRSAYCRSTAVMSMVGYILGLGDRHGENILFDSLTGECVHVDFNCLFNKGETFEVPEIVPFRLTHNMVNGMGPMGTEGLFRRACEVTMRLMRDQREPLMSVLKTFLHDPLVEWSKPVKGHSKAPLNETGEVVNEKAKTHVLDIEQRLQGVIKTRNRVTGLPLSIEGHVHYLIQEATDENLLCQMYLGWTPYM
ATR (Homo sapiens, UniProt Q13535, F134E), sequence (Q8WXE1 whole entry partner): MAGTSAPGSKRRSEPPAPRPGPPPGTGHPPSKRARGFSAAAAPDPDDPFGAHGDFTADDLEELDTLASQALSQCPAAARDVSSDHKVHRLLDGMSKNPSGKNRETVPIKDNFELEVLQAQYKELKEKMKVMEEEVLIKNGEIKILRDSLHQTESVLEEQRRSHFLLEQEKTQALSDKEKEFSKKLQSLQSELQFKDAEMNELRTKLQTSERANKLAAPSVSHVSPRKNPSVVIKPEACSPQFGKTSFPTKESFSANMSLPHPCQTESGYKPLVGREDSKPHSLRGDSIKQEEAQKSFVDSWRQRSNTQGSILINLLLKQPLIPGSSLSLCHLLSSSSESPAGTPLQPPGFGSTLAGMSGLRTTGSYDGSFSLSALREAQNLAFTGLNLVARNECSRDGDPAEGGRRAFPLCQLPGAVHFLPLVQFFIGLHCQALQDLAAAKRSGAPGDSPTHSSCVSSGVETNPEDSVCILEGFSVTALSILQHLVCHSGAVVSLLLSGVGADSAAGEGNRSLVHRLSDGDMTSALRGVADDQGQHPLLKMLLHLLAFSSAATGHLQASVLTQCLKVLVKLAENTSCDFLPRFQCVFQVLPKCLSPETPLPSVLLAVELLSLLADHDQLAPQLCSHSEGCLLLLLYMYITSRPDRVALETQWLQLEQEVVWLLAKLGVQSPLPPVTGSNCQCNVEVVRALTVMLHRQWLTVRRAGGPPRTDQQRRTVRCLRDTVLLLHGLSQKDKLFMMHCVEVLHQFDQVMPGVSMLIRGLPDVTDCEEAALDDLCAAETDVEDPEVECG

[9] = CB-CD34+ exposed to AAV-6 MOI 10000, 10 μM

Q: Which “LV-induced p21 mRNA in presence of the inhibitor” value [1] does the source give for `Cc1nnc(C(=O)NC(C)(C)c2nc(C(=O)NCc3ccc(F)cc3)c(O)c(=O)n2C)o1` [Raltegravir] here?
A: still occurred

Q: What about the “LV integration (VCN) in presence of integrase inhibitor” value (human CB-CD34+ cells [2]) of the same molecule?
A: efficient block

Q: And the “γRV-mediated ISG induction in presence of the inhibitor” value [3]?
A: occurred also

Q: For `Cn1c(=O)n(-c2ccc(C(C)(C)C#N)cc2)c2c3cc(-c4cnc5ccccc5c4)ccc3ncc21` [BEZ235, Dactolisib], which IC50 (ATR [4]) is on record?
A: ~21 nM

Q: With `O=c1cc(-c2cccc3c2Sc2ccccc2S3)oc(N2CCOCC2)c1` [KU-55933] as the molecule, how does the “AAV-6-induced p21 mRNA under ATM inhibition” value [1, 9] read?
A: rescued

Q: And the “LV-induced p21 mRNA in presence of the inhibitor” value [1]?
A: significantly reduced

Q: And the “AAV-6-induced apoptosis under ATM inhibition” value (human CD34+ HSPC; [9])?
A: rescued

Q: And the “LV-induced apoptosis in presence of the inhibitor” value (human CD34+ HSPC; CB-CD34+, LV MOI 100, inhibitor 10 μM, 48 h)?
A: partially abrogated

Q: What about the “γRV-mediated ISG induction in presence of the inhibitor” value [3] of the same molecule?
A: no impact

Q: And the “Proliferation delay of LV-transduced HSPC under ATM inhibition” value (human CB-CD34+ cells [5])?
A: did not affect

Q: What about the “Improvement of LV-exposed HSPC engraftment” value [6] of the same molecule?
A: around 25%

Q: What about the “Impact of ATM inhibition on apoptosis, colony output, cell counts in culture and p21 induction” value (mPB CD34+ cells) of the same molecule?
A: Positive impact

Q: And the Solubility [7]?
A: soluble in DMSO and ethanol

Q: With `COc1cc2ncnc(-n3nc(-c4ccccn4)nc3N)c2cc1OC` [CP-466722] as the molecule, how does the “ATM kinase inhibition” value (ATM kinase) read?
A: potent and reversible ATM kinase inhibitor

Q: What about the “Effect on ATR” value (ATR [8]) of the same molecule?
A: does not affect ATR

Q: Which results are given for `O=C(NC(NC(=S)Nc1ccc(F)c([N+](=O)[O-])c1)C(Cl)(Cl)Cl)C(c1ccccc1)c1ccccc1` (centres unmarked) [CGK 733]?
A: IC50 (ATM kinase): ~200 nM; IC50 (ATR [8]): ~200 nM

B1: GSE56: dominant negative form of p53 (SEQ ID NO: 6), over-expressed from a LV (protein, listed as Homo sapiens)
chain: CPGRDRRTEEENFRKKEEHCPELPPGSAKRALPTSTSSSPQQKKKPLDGEYFTLKIRGRERFEMFRELNEALELKDARAAEESGDSRAHSSYPK
Q: What does the source list for B1?
A: p21 induction upon a second round of LV or AAV6 transduction ([1]; GSE56-expressing CB-CD34+ vs control transduced): completely prevented; p53 signalling upon DNA damage by Captothecin (CPT) ([1]; GSE56-overexpressing HSPC): efficiently block p53 signalling; Apoptosis upon a second round of transduction (human CD34+ HSPC; GSE56-expressing HSPC, 48 h after second hit): reduced apoptosis
